Measured values taken from the CheMixHub viscosity set.

Assay: xn = mol fraction of the nth substance listed

ClCc1ccccc1 + c1ccccc1
viscosity [mPa·s], 101 kPa
Conditions	x2 = 0.1988	x2 = 0.3583	x2 = 0.489	x2 = 0.5982	x2 = 0.6907	x2 = 0.7701	x2 = 0.839	x2 = 0.8993	x2 = 0.9526
298.15 K	0.9856	0.8952	0.8251	0.7742	0.7152	0.6823	0.6598	0.6485	0.6042
303.15 K	0.9782	0.8724	0.8024	0.7153	0.6942	0.6324	0.6248	0.5923	0.5634
308.15 K	0.9265	0.8258	0.7865	0.7026	0.6294	0.6058	0.5861	0.5592	0.5389
313.15 K	0.9357	0.8562	0.7548	0.6994	0.6241	0.5826	0.5742	0.5486	0.5095

CN(CCO)CCO + CCO
313 K, 101.33 kPa
Conditions	viscosity [mPa·s]
x1 = 0.0079	0.832
x1 = 0.02	0.888
x1 = 0.0434	0.998
x1 = 0.216	2.132
x1 = 0.2986	2.967
x1 = 0.3977	4.196
x1 = 0.5237	7.05
x1 = 0.5978	9.003
x1 = 0.7028	12.92
x1 = 0.8085	17.79
x1 = 0.908	23.88

CC(C)(C)O + Cc1ccccc1
viscosity [mPa·s]
Conditions	298.15 K	303.15 K	308.15 K	313.15 K	318.15 K
101 kPa, x2 = 0.1121	2.432	1.991	1.63	1.282	1.05
101 kPa, x2 = 0.1785	1.717	1.462	1.245	1.027	0.8744
101 kPa, x2 = 0.3151	1.113	0.9909	0.8824	0.7677	0.6837
101 kPa, x2 = 0.3919	0.9507	0.8583	0.7749	0.6855	0.6188
101 kPa, x2 = 0.4958	0.7975	0.7306	0.6693	0.6025	0.552
101.33 kPa, x2 = 0.1003	–	1.981	1.622	1.328	–
101.33 kPa, x2 = 0.1723	–	1.455	1.239	1.059	–
101.33 kPa, x2 = 0.3109	–	0.986	0.878	0.781	–
101.33 kPa, x2 = 0.3886	–	0.854	0.771	0.696	–
101.33 kPa, x2 = 0.4942	–	0.727	0.666	0.611	–
101.33 kPa, x2 = 0.6059	–	0.644	0.594	0.548	–
101.33 kPa, x2 = 0.7118	–	0.588	0.547	0.51	–
101.33 kPa, x2 = 0.8135	–	0.549	0.518	0.486	–
101.33 kPa, x2 = 0.9107	–	0.521	0.49	0.46	–
